Test results from patent US11242511B2, “Cytoplasmic protein complex comprising a kinase substrate sensor, cells comprising the complex, and associated detection methods” (VIB VZW, priority 2011, dated 2022).

How the values were obtained:
[1] = molecular target: T1, EFHA1 (which binds to Tyk2(C) itself) (Homo sapiens, UniProt Q8IYU8); experiment: Tyk2(C) kinase substrate sensor luciferase reporter assay, EFHA1 control interaction; assay type: cell-based; conditions: HEK293-T cells, pMet7-HA-Tyk2(C)-p53(N)+pMG1-EFHA1; 0-3333 nM; FIG. 4
T1 construct: expressed in transfected cells; host or cells: HEK293-T
T1 sequence (Q8IYU8 1-434): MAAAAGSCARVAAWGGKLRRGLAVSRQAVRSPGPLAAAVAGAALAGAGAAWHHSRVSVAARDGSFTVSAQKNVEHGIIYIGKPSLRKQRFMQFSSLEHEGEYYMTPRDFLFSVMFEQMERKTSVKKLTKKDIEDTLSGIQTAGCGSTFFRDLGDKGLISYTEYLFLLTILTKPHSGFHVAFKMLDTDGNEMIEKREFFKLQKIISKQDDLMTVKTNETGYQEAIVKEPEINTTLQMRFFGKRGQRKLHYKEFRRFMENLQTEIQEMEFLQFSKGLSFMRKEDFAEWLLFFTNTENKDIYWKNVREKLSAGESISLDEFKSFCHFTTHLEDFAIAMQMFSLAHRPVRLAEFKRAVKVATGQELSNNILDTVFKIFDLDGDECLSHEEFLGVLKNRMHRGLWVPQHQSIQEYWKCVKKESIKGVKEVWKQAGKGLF

Tyk2(R1027A) = experiment: Imidazole-inducible version of the assay, Tyk2(R1027A)-RTp66 fusion, luciferase reporter; assay type: cell-based, human; conditions: HEK293-T cells, 0.5-50 mM imidazole
Method: (§1) Transfections were carried out using a standard calcium phosphate method. HEK293-T cells were seeded in black tissue-culture treated 96-well plates at 10,000 cells/well in 100 μl culture medium (DMEM supplemented with 10% FCS). Twenty-four hours later, plasmid DNA mixes were prepared that contained plasmids encoding fusion proteins with the first and second interacting proteins and reporter plasmids. The DNA was supplemented with 10 μl 2.5M CaCl2) and double distilled water to a final volume of 100 μl. This mixture was added dropwise to 100 μl 2×HeBS buffer (280 mM NaCl, 1.5 mM Na2HPO4, 50 mM Hepes; pH 7.05) while vigorously vortexing. After incubation at room temperature for 15 minutes to allow DNA precipitates to form, the solution was added to the cells at […] Cells were incubated at 37° C., 8% CO2. Forty-eight hours after transfection, luciferase activity was measured using the Luciferase Assay System kit (Promega) on a TopCount luminometer (Perkin-Elmer). Each transfection was done in triplicate and the average of the luciferase activity readings was used in the calculations.
(§2) A Nutlin-3 (Sigma) stock solution of 20 mM in DMSO was diluted in culture medium and added to the cells 24 hours after transfection. Imidazole (Sigma) diluted in culture medium was added to the cells 24 hours after transfection. […]

Tyk2(C) = experiment: Imidazole treatment of the constitutive Tyk2(C)-RTp66 fusion assay, luciferase reporter; assay type: cell-based, human; conditions: HEK293-T cells, pMet7-HA-Tyk2(C)-RTp66; 0.5-50 mM imidazole
Method: as §1, §2

signal corresponding to the interaction with EFHA1 [1]	Structure (SMILES)	background signal, Tyk2 fusion construct with unfused gp130 fragment (pMG1) (Tyk2(R1027A); Tyk2 fusion construct + pMG1)	maximal imidazole-dependent induction of the signal (interaction between HIV RTp66 and RTp51) compared to untreated cells (Tyk2(R1027A); pMet7-HA-Tyk2(R1027A)-RTp66+pMG2-RTp51, added 24 hours after transfection) [fold]	imidazole regulation of the signal in cells transfected with the Tyk2(C) fusion (Tyk2(C))
unaffected	COc1ccc(C2=N[C@@H](c3ccc(Cl)cc3)[C@@H](c3ccc(Cl)cc3)N2C(=O)N2CCNC(=O)C2)c(OC(C)C)c1 [Nutlin-3]	–	–	–
–	c1c[nH]cn1 [imidazole]	unaffected	36	did not exhibit any imidazole regulation
